ChEMBL document CHEMBL1806408, “Design-driven LO: the discovery of new ultra long acting dibasic β2-adrenoceptor agonists” (Bioorg Med Chem Lett, 2011)

How the values were obtained:
[1] = Selectivity ratio of IC50 for dopamine 2 receptor over EC50 for human adrenergic beta2 receptor
[2] = Selectivity ratio of IC50 for adrenergic beta1 receptor over EC50 for human adrenergic beta2 receptor
[3] = in vivo; settings: rat, plasma, iv
[4] = system: Cavia porcellus; assay: Bronchodilatory activity in intratracheally dosed guinea pig assessed as inhibition of histamine-induced bronchoconstriction; settings: inhaled or nasal
[5] = Selectivity ratio of EC50 for human adrenergic beta2 receptor to EC50 for adrenergic beta1 receptor
[6] = target: D(2) dopamine receptor (Homo sapiens, UniProt P14416)
Chain of D(2) dopamine receptor (P14416 whole entry): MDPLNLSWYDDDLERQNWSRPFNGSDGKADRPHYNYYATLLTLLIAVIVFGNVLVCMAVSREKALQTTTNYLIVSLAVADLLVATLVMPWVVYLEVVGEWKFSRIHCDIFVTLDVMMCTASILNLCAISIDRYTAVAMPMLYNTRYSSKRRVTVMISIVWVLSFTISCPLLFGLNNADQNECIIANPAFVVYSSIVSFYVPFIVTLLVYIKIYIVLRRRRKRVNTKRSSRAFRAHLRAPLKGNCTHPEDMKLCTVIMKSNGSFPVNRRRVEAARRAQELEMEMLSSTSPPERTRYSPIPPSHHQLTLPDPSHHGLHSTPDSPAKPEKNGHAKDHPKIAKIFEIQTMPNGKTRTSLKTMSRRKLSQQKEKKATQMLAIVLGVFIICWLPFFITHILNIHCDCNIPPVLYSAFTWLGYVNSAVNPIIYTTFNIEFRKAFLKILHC

[7] = physchem; settings: octanol/phosphate buffer, pH 7.4
[8] = target: T1, Beta-1 adrenergic receptor (Homo sapiens, UniProt P08588)
T1 sequence (P08588 whole entry): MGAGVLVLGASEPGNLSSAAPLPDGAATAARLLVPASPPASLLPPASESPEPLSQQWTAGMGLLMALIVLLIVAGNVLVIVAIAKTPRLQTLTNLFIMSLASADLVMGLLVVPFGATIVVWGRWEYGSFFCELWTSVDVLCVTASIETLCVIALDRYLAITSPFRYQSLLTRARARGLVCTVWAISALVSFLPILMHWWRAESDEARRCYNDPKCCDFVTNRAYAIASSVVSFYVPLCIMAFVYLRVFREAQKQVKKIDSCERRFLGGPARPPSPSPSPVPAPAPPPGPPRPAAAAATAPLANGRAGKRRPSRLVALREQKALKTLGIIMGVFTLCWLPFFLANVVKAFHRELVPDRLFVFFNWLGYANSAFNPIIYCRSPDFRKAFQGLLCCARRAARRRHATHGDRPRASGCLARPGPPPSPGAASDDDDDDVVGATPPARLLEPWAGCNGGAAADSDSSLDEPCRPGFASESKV

[9] = target: T1, Beta-1 adrenergic receptor; remark: listed apart in the source
[10] = target: Beta-2 adrenergic receptor (Homo sapiens, UniProt P07550)
Chain of Beta-2 adrenergic receptor (P07550 whole entry): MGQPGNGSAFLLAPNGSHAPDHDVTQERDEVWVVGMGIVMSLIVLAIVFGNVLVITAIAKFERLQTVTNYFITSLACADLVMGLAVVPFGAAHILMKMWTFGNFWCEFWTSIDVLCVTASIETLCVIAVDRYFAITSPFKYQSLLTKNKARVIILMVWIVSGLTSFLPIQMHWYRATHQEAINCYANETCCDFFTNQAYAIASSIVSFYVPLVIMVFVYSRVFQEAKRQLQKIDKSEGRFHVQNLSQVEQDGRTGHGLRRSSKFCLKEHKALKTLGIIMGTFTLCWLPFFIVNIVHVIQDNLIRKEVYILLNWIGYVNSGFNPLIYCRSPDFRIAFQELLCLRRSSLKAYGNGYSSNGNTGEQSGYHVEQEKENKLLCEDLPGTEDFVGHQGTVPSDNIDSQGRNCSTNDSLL

[11] = system: Cavia porcellus; assay: Bronchodilatory activity in intratracheally dosed guinea pig assessed as inhibition of histamine-induced bronchoconstriction after 24 hrs; assay type: functional
[12] = Oral bioavailability in rat; assay type: ADME, organism-based; settings: in vivo

NC(=O)C(c1ccccc1)(c1ccccc1)[C@@H]1CCN(CCc2ccc3c(c2)CCO3)C1 [DARIFENACIN]
Ratio IC50/EC50 [1]: 1860
Ratio IC50/EC50 [2]: 21
half-life [3]: 7.6 h
ED80 [4]: 14 µg/kg
Ratio EC50 [5]: 2

O=c1[nH]c2c(O)ccc([C@@H](O)CNCCS(=O)(=O)CCCNCCc3cccc(Cl)c3)c2s1
IC50 [6]: 794 nM

O=c1[nH]c2c(O)ccc([C@@H](O)CNCCCSCCNCCc3cccc(Cl)c3)c2s1
logD [7]: 1.1
IC50 [6]: 1580 nM

CCOc1ccc(CCNCCCSCCNC[C@H](O)c2ccc(O)c3[nH]c(=O)sc23)cc1
logD [7]: 0.4

OCc1cc(C(O)CNCCCCCCOCCCCc2ccccc2)ccc1O (centres undefined) [SALMETEROL]
logD [7]: 1.9
half-life [3]: 2.9 h
ED80 [4]: 1 µg/kg

O=c1[nH]c2c(O)ccc([C@@H](O)CNCCCOCCNCCc3cccc(Cl)c3Cl)c2s1
Ratio IC50/EC50 [1]: 2510
IC50 [8]: 50.1 nM
EC50 [9]: 158 nM
logD [7]: 0.6
Ratio IC50/EC50 [2]: 63
IC50 [6]: 2000 nM
Ratio EC50 [5]: 178

O=c1[nH]c2c(O)ccc([C@@H](O)CNCCCOCCNCCc3cccc(Cl)c3)c2s1
Ratio IC50/EC50 [1]: > 14100
IC50 [8]: 63.1 nM
EC50 [9]: 39.8 nM
logD [7]: 0
Ratio IC50/EC50 [2]: 45
IC50 [6]: > 2510 nM
EC50 [10]: 0.2 nM
Ratio EC50 [5]: 100

O=c1[nH]c2c(O)ccc([C@@H](O)CNCCCOCCOCCc3cccc4ccccc34)c2s1
logD [7]: 2.3

O=c1[nH]c2c(O)ccc([C@@H](O)CNCCCSCCOCCc3cccc4ccccc34)c2s1
logD [7]: 3.1
half-life [3]: 3.5 h

O=c1[nH]c2c(O)ccc([C@@H](O)CNCCCSCCNCCc3ccccc3Cl)c2s1
EC50 [9]: 39.8 nM
IC50 [6]: 1000 nM

O=c1[nH]c2c(O)ccc(CCNCCS(=O)(=O)CCCOCCc3ccccc3)c2s1 [SIBENADET]
Ratio IC50/EC50 [1]: 141
IC50 [8]: > 10000 nM
logD [7]: 2.6
Ratio IC50/EC50 [2]: > 14000
IC50 [6]: 100 nM
EC50 [10]: 0.631 nM
ED80 [4]: 7 µg/kg

O=c1[nH]c2c(O)ccc([C@@H](O)CNCCOCCCNCCc3cccc(Cl)c3)c2s1
logD [7]: 0.8

O=c1[nH]c2c(O)ccc([C@@H](O)CNCCSCCCNCCc3cccc(Cl)c3Cl)c2s1
half-life [3]: 10.1 h

O=c1[nH]c2c(O)ccc([C@@H](O)CNCCCSCCOCCc3ccccc3)c2s1
logD [7]: 2.3

CCc1ccc(CCNCCCSCCNC[C@H](O)c2ccc(O)c3[nH]c(=O)sc23)cc1
logD [7]: 0.9

O=c1[nH]c2c(O)ccc([C@@H](O)CNCCCSCCCOCCc3ccccc3)c2s1
EC50 [9]: 3.98 nM
logD [7]: > 2.5

O=c1[nH]c2c(O)ccc([C@@H](O)CNCCCSCCNCCc3cccc(Cl)c3Cl)c2s1
Ratio IC50/EC50 [1]: 562
IC50 [8]: 79.4 nM
EC50 [9]: 63.1 nM
logD [7]: 1.7
Ratio IC50/EC50 [2]: 45
IC50 [6]: 1000 nM
EC50 [10]: 1.58 nM
Ratio EC50 [5]: 35

O=c1[nH]c2c(O)ccc([C@@H](O)CNCCSCCCOCCc3ccccc3)c2s1
logD [7]: 2.5
IC50 [6]: > 1000 nM

O=c1[nH]c2c(O)ccc([C@@H](O)CNCCCOCCOCCc3ccccc3)c2s1
logD [7]: 1.1

O=c1[nH]c2c(O)ccc([C@@H](O)CNCCSCCCNCCc3ccccc3)c2s1
logD [7]: 0.1
half-life [3]: 10.8 h

CN(CCOCCCNC[C@H](O)c1ccc(O)c2[nH]c(=O)sc12)CCc1ccccc1
Ratio IC50/EC50 [1]: 794
IC50 [8]: 398 nM
EC50 [9]: 200 nM
Ratio IC50/EC50 [2]: 150
IC50 [6]: 2510 nM
EC50 [10]: 2.51 nM
Ratio EC50 [5]: 79

O=c1[nH]c2c(O)ccc([C@@H](O)CNCCSCCCNCCc3ccccc3Cl)c2s1
inhibition (INH) [11]: 49%
logD [7]: 1
bioavailability [12]: < 1%
half-life [3]: 15.9 h
ED80 [4]: 7 µg/kg

O=c1[nH]c2c(O)ccc([C@@H](O)CNCC[S+]([O-])CCCNCCc3cccc(Cl)c3)c2s1 (some centres undefined)
Ratio IC50/EC50 [1]: > 560
IC50 [8]: 158 nM
EC50 [9]: 39.8 nM
logD [7]: 0.2
Ratio IC50/EC50 [2]: 26
IC50 [6]: > 3160 nM
EC50 [10]: 5.01 nM
Ratio EC50 [5]: 8

O=c1[nH]c2c(O)ccc([C@@H](O)CNCCSCCCNCCc3cccc(C(F)(F)F)c3)c2s1
logD [7]: 1.2
